Assay results from PubChem BioAssay AID248 (DTP/NCI, 2004).
Values joined by “and” are separate entries in the source; they are usually repeats but may differ in a detail not shown here. Equal entries are not always repeated. Inconclusive results and toxic doses are left out.

Tested on: L1210 leukemia ip in BDF1 mice, survival T/C
Assay: NCI In Vivo Anticancer Drug Screen. Data for tumor model L1210 Leukemia (intraperitoneal) in B6D2F1 (BDF1) mice
Details: endpoint: mean survival time, higher = longer survival
Summary of the method: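 Tumor cells were implanted, animals were treated, and survival was followed. The result divides the treated measurement by the vehicle-control measurement.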

[1] = dose: 100.0 mg/kg/injection, schedule: Q04DX003 (ip), vehicle: saline with Tween-80
[2] = dose: 200.0 mg/kg/injection, schedule: Q04DX003 (ip), vehicle: saline with Tween-80
[3] = dose: 400.0 mg/kg/injection, schedule: Q04DX003 (ip), vehicle: saline with Tween-80
[4] = dose: 100.0 mg/kg/injection, schedule: Q04DX002 (ip), vehicle: saline with Tween-80
[5] = dose: 200.0 mg/kg/injection, schedule: Q04DX002 (ip), vehicle: saline with Tween-80
[6] = dose: 400.0 mg/kg/injection, schedule: Q04DX002 (ip), vehicle: saline with Tween-80
[7] = dose: 100.0 mg/kg/injection, schedule: Q04DX003 (ip), vehicle: Klucel (hydroxypropylcellulose) (HPC)
[8] = dose: 200.0 mg/kg/injection, schedule: Q04DX003 (ip), vehicle: Klucel (hydroxypropylcellulose) (HPC)
[9] = dose: 400.0 mg/kg/injection, schedule: Q04DX003 (ip), vehicle: Klucel (hydroxypropylcellulose) (HPC)

Compound: COC[CH2][Hg][O]C(C)=O
- T/C (dose: 3.12 mg/kg/injection, schedule: Q04DX002 (ip), vehicle: Klucel (hydroxypropylcellulose) (HPC)): 98 % of control
- T/C (dose: 6.25 mg/kg/injection, schedule: Q04DX002 (ip), vehicle: Klucel (hydroxypropylcellulose) (HPC)): 92 % of control
- T/C (dose: 12.5 mg/kg/injection, schedule: Q04DX002 (ip), vehicle: Klucel (hydroxypropylcellulose) (HPC)): 88 % of control and 90 % of control

Compound: CCCCCCC(=O)CCCCCC/C=C/CC(O)C(O)C(N)(CO)C(=O)O (stereo not given)
- T/C (dose: 0.78 mg/kg/injection, schedule: Q04DX002 (ip), vehicle: saline with Tween-80): 104 % of control
- T/C (dose: 1.56 mg/kg/injection, schedule: Q04DX002 (ip), vehicle: saline with Tween-80): 104 % of control
- T/C (dose: 3.13 mg/kg/injection, schedule: Q04DX002 (ip), vehicle: saline with Tween-80): 100 % of control

Compound: Cc1cc([N+](=O)[O-])ccc1N=O
- T/C (dose: 12.5 mg/kg/injection, schedule: Q01DX009 (ip), vehicle: saline with Tween-80): 101 % of control
- T/C (dose: 25.0 mg/kg/injection, schedule: Q01DX009 (ip), vehicle: saline with Tween-80): 102 % of control
- T/C (dose: 50.0 mg/kg/injection, schedule: Q01DX009 (ip), vehicle: saline with Tween-80): 98 % of control
- T/C [1]: 98 % of control
- T/C [2]: 100 % of control
- T/C [3]: 100 % of control

Compound: CCN(CCO)CC(C)Nc1ccc([N+](=O)[O-])c2sc3ccccc3c(=O)c12 (stereo not given)
- T/C (dose: 1.5 mg/kg/injection, schedule: Q01DX Z (ip), vehicle: carboxymethylcellulose (CMC)): 96 % of control
- T/C (dose: 3.0 mg/kg/injection, schedule: Q01DX Z (ip), vehicle: carboxymethylcellulose (CMC)): 107 % of control
- T/C (dose: 3.5 mg/kg/injection, schedule: Q01DX Z (ip), vehicle: saline): 101 % of control
- T/C (dose: 5.3 mg/kg/injection, schedule: Q01DX Z (ip), vehicle: saline): 115 % of control
- T/C (dose: 6.0 mg/kg/injection, schedule: Q01DX Z (ip), vehicle: carboxymethylcellulose (CMC)): 100 % of control
- T/C (dose: 8.0 mg/kg/injection, schedule: Q01DX Z (ip), vehicle: saline): 104 % of control
- T/C (dose: 10.0 mg/kg/injection, schedule: Q01DX Z (ip), vehicle: other): 107 % of control
- T/C (dose: 12.0 mg/kg/injection, schedule: Q01DX Z (ip), vehicle: carboxymethylcellulose (CMC)): 110 % of control
- T/C (dose: 12.0 mg/kg/injection, schedule: Q01DX Z (ip), vehicle: saline): 105 % of control and 89 % of control
- T/C (dose: 18.0 mg/kg/injection, schedule: Q01DX Z (ip), vehicle: saline): 91 % of control
- T/C (dose: 30.0 mg/kg/injection, schedule: Q01DX Z (ip), vehicle: other): 156 % of control
- T/C (dose: 40.0 mg/kg/injection, schedule: Q01DX Z (ip), vehicle: saline): 166 % of control
- T/C (dose: 60.0 mg/kg/injection, schedule: Q01DX Z (ip), vehicle: saline): 104 % of control
- T/C (dose: 90.0 mg/kg/injection, schedule: Q01DX Z (ip), vehicle: other): 121 % of control
- T/C (dose: 90.0 mg/kg/injection, schedule: Q01DX Z (ip), vehicle: saline): 89 % of control
- T/C (dose: 91.5 mg/kg/injection, schedule: Q01DX Z (ip), vehicle: saline): 160 % of control
- T/C (dose: 100.0 mg/kg/injection, schedule: Q01DX001 (ip), vehicle: saline): 114 % of control
- T/C (dose: 137.0 mg/kg/injection, schedule: Q01DX Z (ip), vehicle: saline): 124 % of control
- T/C (dose: 400.0 mg/kg/injection, schedule: Q01DX001 (ip), vehicle: saline): 167 % of control and 175 % of control

Compound: NC(=NCCO)C(N)=NCCO
- T/C (dose: 100.0 mg/kg/injection, schedule: Q01DX009 (ip), vehicle: saline): 102 % of control
- T/C (dose: 100.0 mg/kg/injection, schedule: Q04DX003 (ip), vehicle: saline): 96 % of control
- T/C (dose: 200.0 mg/kg/injection, schedule: Q01DX009 (ip), vehicle: saline): 94 % of control
- T/C (dose: 200.0 mg/kg/injection, schedule: Q04DX003 (ip), vehicle: saline): 96 % of control
- T/C (dose: 400.0 mg/kg/injection, schedule: Q01DX009 (ip), vehicle: saline): 94 % of control
- T/C (dose: 400.0 mg/kg/injection, schedule: Q04DX003 (ip), vehicle: saline): 100 % of control

Compound: CCCS(=O)(=O)N1CCCC1
- T/C [4]: 99 % of control
- T/C [5]: 105 % of control
- T/C [6]: 99 % of control

Compound: CC(=O)Oc1cccc(OC(=O)Nc2cccc(Cl)c2C)c1
- T/C (dose: 100.0 mg/kg/injection, schedule: Q01DX001 (ip), vehicle: saline with Tween-80): 93 % of control
- T/C (dose: 100.0 mg/kg/injection, schedule: Q01DX009 (ip), vehicle: saline with Tween-80): 104 % of control and 107 % of control
- T/C [4]: 94 % of control and 104 % of control
- T/C [1]: 88 % of control
- T/C (dose: 200.0 mg/kg/injection, schedule: Q01DX001 (ip), vehicle: saline with Tween-80): 100 % of control
- T/C (dose: 200.0 mg/kg/injection, schedule: Q01DX009 (ip), vehicle: saline with Tween-80): 96 % of control and 90 % of control
- T/C [5]: 94 % of control and 101 % of control
- T/C [2]: 86 % of control
- T/C (dose: 400.0 mg/kg/injection, schedule: Q01DX001 (ip), vehicle: saline with Tween-80): 93 % of control
- T/C (dose: 400.0 mg/kg/injection, schedule: Q01DX009 (ip), vehicle: saline with Tween-80): 93 % of control and 100 % of control
- T/C [6]: 97 % of control and 104 % of control
- T/C [3]: 89 % of control

Compound: C[n+]1c(-c2ccc(Cl)c(Cl)c2)c2cc(N)ccc2c2ccccc21
- T/C (dose: 3.12 mg/kg/injection, schedule: Q01DX009 (ip), vehicle: water): 102 % of control
- T/C (dose: 6.25 mg/kg/injection, schedule: Q01DX009 (ip), vehicle: water): 110 % of control
- T/C (dose: 12.5 mg/kg/injection, schedule: Q01DX009 (ip), vehicle: water): 104 % of control
- T/C (dose: 12.5 mg/kg/injection, schedule: Q04DX003 (ip), vehicle: water): 105 % of control
- T/C (dose: 25.0 mg/kg/injection, schedule: Q04DX003 (ip), vehicle: water): 93 % of control

Compound: O=C(Nc1ccccc1C(F)(F)F)OCCN1CCNC1=S
- T/C (dose: 100.0 mg/kg/injection, schedule: Q01DX001 (ip), vehicle: Klucel (hydroxypropylcellulose) (HPC)): 106 % of control
- T/C (dose: 100.0 mg/kg/injection, schedule: Q01DX009 (ip), vehicle: Klucel (hydroxypropylcellulose) (HPC)): 96 % of control and 103 % of control
- T/C (dose: 100.0 mg/kg/injection, schedule: Q04DX002 (ip), vehicle: Klucel (hydroxypropylcellulose) (HPC)): 94 % of control and 96 % of control
- T/C [7]: 101 % of control
- T/C (dose: 200.0 mg/kg/injection, schedule: Q01DX001 (ip), vehicle: Klucel (hydroxypropylcellulose) (HPC)): 103 % of control
- T/C (dose: 200.0 mg/kg/injection, schedule: Q01DX009 (ip), vehicle: Klucel (hydroxypropylcellulose) (HPC)): 98 % of control and 100 % of control
- T/C (dose: 200.0 mg/kg/injection, schedule: Q04DX002 (ip), vehicle: Klucel (hydroxypropylcellulose) (HPC)): 95 % of control and 111 % of control
- T/C [8]: 106 % of control
- T/C (dose: 400.0 mg/kg/injection, schedule: Q01DX001 (ip), vehicle: Klucel (hydroxypropylcellulose) (HPC)): 104 % of control
- T/C (dose: 400.0 mg/kg/injection, schedule: Q01DX009 (ip), vehicle: Klucel (hydroxypropylcellulose) (HPC)): 95 % of control and 100 % of control
- T/C (dose: 400.0 mg/kg/injection, schedule: Q04DX002 (ip), vehicle: Klucel (hydroxypropylcellulose) (HPC)): 94 % of control and 104 % of control
- T/C [9]: 89 % of control

Compound: COC1c2c(nc3ccccc3c2C#N)-c2ccccc2C1(C)C (stereo not given)
- T/C [7]: 106 % of control
- T/C [8]: 95 % of control
- T/C [9]: 104 % of control

Compound: C[n+]1cccc2cccc(C(=O)O)c21
- T/C (dose: 75.0 mg/kg/injection, schedule: Q01DX001 (ip), vehicle: saline): 100 % of control
- T/C (dose: 150.0 mg/kg/injection, schedule: Q01DX001 (ip), vehicle: saline): 94 % of control

Compound: COc1ccc(N=Cc2c(O)ccc3ccccc23)cc1
- T/C [7]: 107 % of control
- T/C [8]: 98 % of control
- T/C [9]: 102 % of control

Compound: O=C(C1C2C=CC(C2)C1C(=O)N1CCOCC1)N1CCOCC1 (stereo not given)
- T/C [1]: 107 % of control
- T/C [2]: 102 % of control
- T/C [3]: 107 % of control
